Data reported in the supplement of paper PMC10733146.

How the values were obtained:
Experiment in all cases: viability relative to DMSO control (fraction); higher = less drug effect (more viable cells)
Settings in all cases: 48 h
[1] = test system: primary ALL patient cells (S048)
Summary of the method: (§1)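 Compounds were pre-plated at five concentrations, one well each, in 384-well plates, and primary mononuclear tumour cells were plated on them at 4 × 10^4 cells per well. The cells, fresh or cryopreserved, had been Ficoll-isolated from blood or bone marrow or taken from processed lymph node. After 48 h at 37 °C and 5% CO2 in RPMI-1640 with penicillin/streptomycin, L-glutamine and human serum, viability was read as CellTiter-Glo luminescence relative to the median of 16 inner DMSO wells.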

[2] = test system: primary AML patient cells (S006)
Summary of the method: as §1

[3] = test system: primary AML patient cells (S009)
Summary of the method: as §1

[4] = test system: primary AML patient cells (S012)
Summary of the method: as §1

[5] = test system: primary AML patient cells (S037)
Summary of the method: as §1

[6] = test system: primary AML patient cells (S055)
Summary of the method: as §1

[7] = test system: primary AML patient cells (S056)
Summary of the method: as §1

[8] = test system: primary AML patient cells (S072)
Summary of the method: as §1

[9] = test system: primary AML patient cells (S079)
Summary of the method: as §1

[10] = test system: primary AML patient cells (S089)
Summary of the method: as §1

[11] = test system: primary AML patient cells (S091)
Summary of the method: as §1

[12] = test system: primary CLL patient cells (S031)
Summary of the method: as §1

[13] = test system: primary DLBCL patient cells (S082)
Summary of the method: as §1

[14] = test system: primary FL patient cells (S022)
Summary of the method: as §1

[15] = test system: primary FL patient cells (S087)
Summary of the method: as §1

[16] = test system: primary MCL patient cells (S041)
Summary of the method: as §1

[17] = test system: primary MCL patient cells (S053)
Summary of the method: as §1

[18] = test system: primary MCL patient cells (S063)
Summary of the method: as §1

[19] = test system: primary MCL patient cells (S068)
Summary of the method: as §1

[20] = test system: primary T-PLL patient cells (S008)
Summary of the method: as §1

CC(C)(C)C[C@@H]1N[C@@H](C(=O)N[C@H]2CC[C@H](O)CC2)[C@H](c2cccc(Cl)c2F)[C@]12C(=O)Nc1cc(Cl)ccc12 [MI-773]
viability ([1]; 0.008 µM): 1.01 | viability ([1]; 0.04 µM): 0.992 | viability ([1]; 0.2 µM): 0.799 | viability ([1]; 1 µM): 0.472 | viability ([1]; 5 µM): 0.0627 | viability ([2]; 0.008 µM): 0.915 | viability ([2]; 0.04 µM): 0.761 | viability ([2]; 0.2 µM): 0.481 | viability ([2]; 1 µM): 0.194 | viability ([2]; 5 µM): 0.0491 | viability ([3]; 0.008 µM): 0.894 | viability ([3]; 0.04 µM): 0.755 | viability ([3]; 0.2 µM): 0.698 | viability ([3]; 1 µM): 0.56 | viability ([3]; 5 µM): 0.524 | viability ([4]; 0.008 µM): 0.96 | viability ([4]; 0.04 µM): 0.971 | viability ([4]; 0.2 µM): 0.937 | viability ([4]; 1 µM): 0.976 | viability ([4]; 5 µM): 1.02 | viability ([5]; 0.008 µM): 1.04 | viability ([5]; 0.04 µM): 1.01 | viability ([5]; 0.2 µM): 1.01 | viability ([5]; 1 µM): 0.742 | viability ([5]; 5 µM): 0.453 | viability ([6]; 0.008 µM): 1.01 | viability ([6]; 0.04 µM): 1.01 | viability ([6]; 0.2 µM): 0.997 | viability ([6]; 1 µM): 0.919 | viability ([6]; 5 µM): 0.409 | viability ([7]; 0.008 µM): 1.03 | viability ([7]; 0.04 µM): 0.9 | viability ([7]; 0.2 µM): 0.696 | viability ([7]; 1 µM): 0.296 | viability ([7]; 5 µM): 0.117 | viability ([8]; 0.008 µM): 1.06 | viability ([8]; 0.04 µM): 0.843 | viability ([8]; 0.2 µM): 0.934 | viability ([8]; 1 µM): 0.775 | viability ([8]; 5 µM): 0.762 | viability ([9]; 0.008 µM): 1.01 | viability ([9]; 0.04 µM): 1.01 | viability ([9]; 0.2 µM): 1.01 | viability ([9]; 1 µM): 0.901 | viability ([9]; 5 µM): 0.636 | viability ([10]; 0.008 µM): 0.993 | viability ([10]; 0.04 µM): 0.973 | viability ([10]; 0.2 µM): 0.938 | viability ([10]; 1 µM): 0.842 | viability ([10]; 5 µM): 0.493 | viability ([11]; 0.008 µM): 0.979 | viability ([11]; 0.04 µM): 0.781 | viability ([11]; 0.2 µM): 0.587 | viability ([11]; 1 µM): 0.428 | viability ([11]; 5 µM): 0.321 | viability ([12]; 0.008 µM): 0.97 | viability ([12]; 0.04 µM): 0.819 | viability ([12]; 0.2 µM): 0.593 | viability ([12]; 1 µM): 0.439 | viability ([12]; 5 µM): 0.0647 | viability ([13]; 0.008 µM): 1.07 | viability ([13]; 0.04 µM): 0.971 | viability ([13]; 0.2 µM): 1.14 | viability ([13]; 1 µM): 0.98 | viability ([13]; 5 µM): 1.03 | viability ([14]; 0.008 µM): 1.02 | viability ([14]; 0.04 µM): 0.934 | viability ([14]; 0.2 µM): 0.957 | viability ([14]; 1 µM): 0.947 | viability ([14]; 5 µM): 0.722 | viability ([15]; 0.008 µM): 1 | viability ([15]; 0.04 µM): 0.99 | viability ([15]; 0.2 µM): 0.937 | viability ([15]; 1 µM): 0.849 | viability ([15]; 5 µM): 0.694 | viability ([16]; 0.008 µM): 1.02 | viability ([16]; 0.04 µM): 0.976 | viability ([16]; 0.2 µM): 0.92 | viability ([16]; 1 µM): 0.752 | viability ([16]; 5 µM): 0.434 | viability ([17]; 0.008 µM): 1.11 | viability ([17]; 0.04 µM): 0.915 | viability ([17]; 0.2 µM): 0.755 | viability ([17]; 1 µM): 0.424 | viability ([17]; 5 µM): 0.347 | viability ([18]; 0.008 µM): 1.07 | viability ([18]; 0.04 µM): 1.05 | viability ([18]; 0.2 µM): 0.995 | viability ([18]; 1 µM): 0.705 | viability ([18]; 5 µM): 0.246 | viability ([19]; 0.008 µM): 1.08 | viability ([19]; 0.04 µM): 0.944 | viability ([19]; 0.2 µM): 0.986 | viability ([19]; 1 µM): 0.854 | viability ([19]; 5 µM): 0.68 | viability ([20]; 0.008 µM): 0.99 | viability ([20]; 0.04 µM): 0.946 | viability ([20]; 0.2 µM): 0.989 | viability ([20]; 1 µM): 0.677 | viability ([20]; 5 µM): 0.258
